Measured values published in patent US11013723B1, “Solid forms of a thiazolidinone compound, compositions and methods of use thereof” (Celgene Corporation, priority 2018, dated 2021).
Peptide text beside a SMILES is read from it.

Test: Slurry ripening comparative co-crystal screening (solid form outcome)
Format: physicochemical
Settings: Compound 1 + coformer, cycled 25° C./5° C., 10 days; for Slurry ripening result, EtOAc: EtOAc saturated with coformer; for Slurry ripening result, MTBE: MTBE saturated with coformer; for Slurry ripening result, EtOH: EtOH saturated with coformer
Description: In certain embodiments, for example, the method may comprise slurry ripening. […] In certain embodiments, the solvent is 1-butanol or toluene.
In certain embodiments, for example, the saturated coformer solution may be prepared by 1) combining the quantity of coformer in a quantity (for example, about 2 mL) of solvent; 2) mixing the combined quantities at a predetermined temperature (for example 23° C.) for a predetermined period of time (for example at least about 16 hours or less than about 16 hours) to form a suspension; and 3) filtering the suspension (for example filtering the suspension through an 0.2 micron PTFE filter if the solvent is an organic solvent or an 0.45 micron filter if the solvent is an organic solvent mixed with water). In certain embodiments, for example, the solvent may be selected from the group consisting of ethyl alcohol, a solution of ethyl acetate and heptane (for example a solution having an ethyl acetate to heptane at ratio of 2:8 v/v), a solution of acetonitrile and water (for example a solution having a acetonitrile to water ratio of 1:9 v/v), and t-butyl methyl ether (MTBE), or a combination of two or more of the foregoing.
A series of comparative crystallization experiments were conducted with 41 potential coformers and 7 solvents by two different methods.

**Q.** Which “Slurry ripening result, EtOAc” value does the source give for O=C(O)c1ccc2ccccc2c1O [1-Hydroxy-2-Naphthoic acid] here?
**A.** The value was “PCH”.

**Q.** What about the “Slurry ripening result, MTBE” value of the same molecule?
**A.** The value was “A*”.

**Q.** With CC1(C(=O)O)CCC(C(=O)O)C1(C)C (stereo not drawn) [(+)-Camphoric acid] as the molecule, how does the “Slurry ripening result, MTBE” value read?
**A.** Its value is “PCH”.

**Q.** Which “Slurry ripening result, EtOAc” value does the source give for O=C(O)[C@H](O)[C@@H](O)C(=O)O [(+)-L-Tartaric acid] here?
**A.** Its value is “F*”.

**Q.** With COC(=O)[C@H](Cc1ccccc1)NC(=O)[C@@H](N)CC(=O)O [Aspartame] (H-Asp-Phe-OMe) as the molecule, how does the “Slurry ripening result, EtOAc” value read?
**A.** Its value is “A + F”.

**Q.** Which “Slurry ripening result, EtOH” value does the source give for NC(=O)c1ccncc1 [Isonicotinamide] here?
**A.** Its value is “B*”.

**Q.** Which “Slurry ripening result, MTBE” value does the source give for O=C(O)[C@@H](O)c1ccccc1 [L-(+)-Mandelic acid] here?
**A.** The value was “PCH”.

**Q.** For O=C(O)CC(=O)O [Malonic acid], which “Slurry ripening result, Toluene” value (Toluene saturated with coformer) is on record?
**A.** The value was “F*”.

**Q.** Which “Slurry ripening result, EtOH” value does the source give for NC(=O)c1cccnc1 [Nicotinamide] here?
**A.** Its value is “PCH”.

**Q.** Which “Slurry ripening result, MTBE” value does the source give for Oc1cccc(O)c1O [Pyrogallol] here?
**A.** The value was “PCH”.

**Q.** Which “Slurry ripening result, EtOH” value does the source give for O=c1c(O)c(-c2ccc(O)c(O)c2)oc2cc(O)cc(O)c12 [Quercetin] here?
**A.** The value was “PCH”.

**Q.** For NC(N)=O [Urea], which “Slurry ripening result, MTBE” value is on record?
**A.** Its value is “PCH”.

**Q.** What does the source list for (−)-L-Malic acid?
**A.** Slurry ripening result, EtOAc: PCH; Slurry ripening result, EtOH: PCH
